Source: US4487924A, “2'-N-β-Lysyl) aminoglycosides” (Kowa Company, Ltd., priority 1982, dated 1984)
Converted amounts (≈) assume the structure as drawn. Like-named read-outs stand apart in the source and are kept apart here.

Assays:
Experiment in all cases: Antibiotic activity (MIC), Table 1
Type in all cases: cell-based
S. aureus 209P JC-1 = test system: S. aureus 209P JC-1
S. faecalis Imanari = test system: S. faecalis Imanari
E. coli NIHJ JC-2 = test system: E. coli NIHJ JC-2
[1] = test system: P. inconstans GN1554 (AAC(2'))
E. coli R176 (AAC(3)-II) = test system: E. coli R176 (AAC(3)-II)
P. aeruginosa NCTC 10490 = test system: P. aeruginosa NCTC 10490
P. maltophilia IID 1275 = test system: P. maltophilia IID 1275
P. cepacia 11D 1340 = test system: P. cepacia 11D 1340
P. putida IID 5121 = test system: P. putida IID 5121
E. coli JR 88 (AAC(3)-I) = test system: E. coli JR 88 (AAC(3)-I)
P. inconstans 93 = test system: P. inconstans 93
[2] = test system: K. pneumoniae 4687 (AAD(2"))
E. cloacae IID 977 = test system: E. cloacae IID 977
[3] = test system: P. aerugionosa TK-157 (APH(3')-II)
[4] = test system: P. aeruginosa RST-1 (AAC(3)-III)
B. subtilis ATCC 6633 = test system: B. subtilis ATCC 6633
[5] = test system: P. aeruginosa 99 (AAC(3)-I)
[6] = test system: P. aeruginosa GN315 (AAC(6')-IV)
S. marcescens NHL = test system: S. marcescens NHL
E. coli ML 1410 = test system: E. coli ML 1410
[7] = test system: P. aeruginosa TI 13 (APH(3')-I)
K. pneumoniae PCI 602 = test system: K. pneumoniae PCI 602
P. vulgaris IID 874 = test system: P. vulgaris IID 874
[8] = test system: E. coli ML 1410 R102 (AAD(2")); conditions: Escherichia coli
[9] = test system: E. coli ML 1410 R82 (AAD(3")); conditions: Escherichia coli
[10] = Staphylococcus aureus, 209P, read-out: MIC
[11] = Enterococcus faecalis, read-out: MIC
[12] = Escherichia coli, NIHJJC2, E. coli NIHJ JC-2, read-out: MIC
[13] = Providencia alcalifaciens, GN1554, P. inconstans GN1554 (AAC(2')), read-out: MIC
[14] = Escherichia coli, read-out: MIC
[15] = Pseudomonas aeruginosa, NCTC10490, P. aeruginosa NCTC 10490, read-out: MIC
[16] = Stenotrophomonas maltophilia, IID1275, P. maltophilia IID 1275, read-out: MIC
[17] = Burkholderia cepacia, 11D1340, read-out: MIC
[18] = Pseudomonas putida, IID5121, P. putida IID 5121, read-out: MIC
[19] = Klebsiella pneumoniae, read-out: MIC
[20] = Enterobacter cloacae, IID977, E. cloacae IID 977, read-out: MIC
[21] = Pseudomonas aeruginosa, read-out: MIC
[22] = Bacillus subtilis, ATCC6633, B. subtilis ATCC 6633, read-out: MIC
[23] = Pseudomonas aeruginosa, GN315, P. aeruginosa GN315 (AAC(6')-IV), read-out: MIC
[24] = Serratia marcescens, read-out: MIC
[25] = Escherichia coli, ML1410, E. coli ML 1410, read-out: MIC
[26] = Klebsiella pneumoniae, PCI602, K. pneumoniae PCI 602, read-out: MIC

CNC1C(O)CC(N)C(OC2OC(C(C)N)CCC2NC(=O)C[C@@H](N)CCCN)C1O (stereo partly drawn) [2'-N-β-Lysyl 5-de-O-Me KA-6606II, 2'-N-(L-β-lysyl)-5-de-O-methyl-KA-6606II]
MIC (S. aureus 209P JC-1): 0.78 µg/mL (≈ 1.75 µM) | MIC (S. faecalis Imanari): 3.13 µg/mL (≈ 7.01 µM) | MIC (E. coli NIHJ JC-2; E. coli NIHJ JC-2): 3.13 µg/mL (≈ 7.01 µM) | MIC ([1]; P. inconstans GN1554 (AAC(2'))): 1.56 µg/mL (≈ 3.49 µM) | MIC (E. coli R176 (AAC(3)-II)): 6.25 µg/mL (≈ 14 µM) | MIC (P. aeruginosa NCTC 10490; P. aeruginosa NCTC 10490): 25 µg/mL (≈ 56 µM) | MIC (P. maltophilia IID 1275; P. maltophilia IID 1275): 1.56 µg/mL (≈ 3.49 µM) | MIC (P. cepacia 11D 1340): > 100 µg/mL | MIC (P. putida IID 5121; P. putida IID 5121): 25 µg/mL (≈ 56 µM) | MIC (E. coli JR 88 (AAC(3)-I)): 12.5 µg/mL (≈ 28 µM) | MIC (P. inconstans 93; P. inconstans 93): 1.56 µg/mL (≈ 3.49 µM) | MIC [2]: 12.5 µg/mL (≈ 28 µM) | MIC (E. cloacae IID 977; E. cloacae IID 977): 12.5 µg/mL (≈ 28 µM) | MIC [3]: 50 µg/mL (≈ 112 µM) | MIC [4]: 100 µg/mL (≈ 224 µM) | MIC (B. subtilis ATCC 6633; B. subtilis ATCC 6633): 3.13 µg/mL (≈ 7.01 µM) | MIC [5]: > 100 µg/mL | MIC ([6]; P. aeruginosa GN315 (AAC(6')-IV)): > 100 µg/mL | MIC (S. marcescens NHL): 3.13 µg/mL (≈ 7.01 µM) | MIC (E. coli ML 1410; E. coli ML 1410): 6.25 µg/mL (≈ 14 µM) | MIC [7]: 50 µg/mL (≈ 112 µM) | MIC (K. pneumoniae PCI 602; K. pneumoniae PCI 602): 0.78 µg/mL (≈ 1.75 µM) | MIC (P. vulgaris IID 874; P. vulgaris IID 874): 25 µg/mL (≈ 56 µM)

CNC1C(O)CC(N)C(OC2OC(C(C)N)CCC2NC(=O)C[C@@H](N)CCCN)C1O (stereo partly drawn) [2'-N-β-Lysyl 5-de-O-Me KA-6606VIII, 2'-N-(L-β-lysyl)-5-de-O-methyl-KA-6606VIII]
MIC (S. aureus 209P JC-1; [10]): 0.78 µg/mL (≈ 1.75 µM) | MIC (S. faecalis Imanari; [11]): 3.13 µg/mL (≈ 7.01 µM) | MIC (E. coli NIHJ JC-2; [12]): 6.25 µg/mL (≈ 14 µM) | MIC [1, 13]: 1.56 µg/mL (≈ 3.49 µM) | MIC (E. coli R176 (AAC(3)-II); [14]): 6.25 µg/mL (≈ 14 µM) | MIC (P. aeruginosa NCTC 10490; [15]): 50 µg/mL (≈ 112 µM) | MIC (P. maltophilia IID 1275; [16]): 1.56 µg/mL (≈ 3.49 µM) | MIC (P. cepacia 11D 1340; [17]): > 100 µg/mL | MIC (P. putida IID 5121; [18]): 12.5 µg/mL (≈ 28 µM) | MIC (E. coli JR 88 (AAC(3)-I); [14]): 6.25 µg/mL (≈ 14 µM) | MIC (P. inconstans 93; P. inconstans 93): 3.13 µg/mL (≈ 7.01 µM) | MIC [2, 19]: 12.5 µg/mL (≈ 28 µM) | MIC (E. cloacae IID 977; [20]): 25 µg/mL (≈ 56 µM) | MIC ([3]; read-out: MIC): 50 µg/mL (≈ 112 µM) | MIC [4, 21]: > 100 µg/mL | MIC (B. subtilis ATCC 6633; [22]): 3.13 µg/mL (≈ 7.01 µM) | MIC [5, 21]: > 100 µg/mL | MIC [6, 23]: > 100 µg/mL | MIC (S. marcescens NHL; [24]): 6.25 µg/mL (≈ 14 µM) | MIC (E. coli ML 1410; [25]): 6.25 µg/mL (≈ 14 µM) | MIC ([7]; Pseudomonas aeruginosa): 50 µg/mL (≈ 112 µM) | MIC (K. pneumoniae PCI 602; [26]): 0.78 µg/mL (≈ 1.75 µM) | MIC (P. vulgaris IID 874; P. vulgaris IID 874): 100 µg/mL (≈ 224 µM)

CNC1C(OC)CC(N)C(OC2OC(C(C)N)CCC2NC(=O)C[C@@H](N)CCCN)C1O (stereo partly drawn) [2'-N-β-Lysyl KA-6606VIII, 2'-N-(L-β-lysyl)-KA-6606VIII]
MIC (S. aureus 209P JC-1; [10]): 0.39 µg/mL (≈ 0.847 µM) | MIC (S. faecalis Imanari; [11]): 1.56 µg/mL (≈ 3.39 µM) | MIC (E. coli NIHJ JC-2; [12]): 1.56 µg/mL (≈ 3.39 µM) | MIC [1, 13]: 0.2 µg/mL (≈ 0.434 µM) | MIC (E. coli R176 (AAC(3)-II); [14]): 0.78 µg/mL (≈ 1.69 µM) | MIC (P. aeruginosa NCTC 10490; [15]): 6.25 µg/mL (≈ 13.6 µM) | MIC (P. maltophilia IID 1275; [16]): 1.56 µg/mL (≈ 3.39 µM) | MIC (P. cepacia 11D 1340; [17]): > 100 µg/mL | MIC (P. putida IID 5121; [18]): 3.13 µg/mL (≈ 6.8 µM) | MIC (E. coli JR 88 (AAC(3)-I); [14]): 0.78 µg/mL (≈ 1.69 µM) | MIC (P. inconstans 93; Providencia alcalifaciens, 93, P. inconstans 93, read-out: MIC): 0.39 µg/mL (≈ 0.847 µM) | MIC [2, 19]: 0.78 µg/mL (≈ 1.69 µM) | MIC (E. cloacae IID 977; [20]): 3.13 µg/mL (≈ 6.8 µM) | MIC ([3]; read-out: MIC): 25 µg/mL (≈ 54.3 µM) | MIC [4, 21]: 100 µg/mL (≈ 217 µM) | MIC [8]: 0.39 µg/mL (≈ 0.847 µM) | MIC (B. subtilis ATCC 6633; [22]): 3.13 µg/mL (≈ 6.8 µM) | MIC [5, 21]: 50 µg/mL (≈ 109 µM) | MIC [6, 23]: 25 µg/mL (≈ 54.3 µM) | MIC [9]: 0.39 µg/mL (≈ 0.847 µM) | MIC (S. marcescens NHL; [24]): 0.2 µg/mL (≈ 0.434 µM) | MIC (E. coli ML 1410; [25]): 0.78 µg/mL (≈ 1.69 µM) | MIC ([7]; Pseudomonas aeruginosa): 25 µg/mL (≈ 54.3 µM) | MIC (K. pneumoniae PCI 602; [26]): 0.78 µg/mL (≈ 1.69 µM) | MIC (P. vulgaris IID 874; Proteus vulgaris, IID874, P. vulgaris IID 874, read-out: MIC): 12.5 µg/mL (≈ 27.1 µM)
